# Legend:
# Format in all cases: in vivo, mouse
# C57BL/6 J mice [1] = assay: Forelimb grip strength test; details: vs AGR-Scr
# Experimental: A grip strength meter (Columbus Instruments) was used to measure the forelimb grip strength as previously reported. The grid was attached to a force transducer to measure the maximum force applied by the mouse on the grid during the pull. The body weight of the mice was recorded prior to the test and the units of force were calculated in grams-of-force.
# C57BL/6 J mice [2] = assay: Echocardiography and diaphragm/aorta histology; details: vs AGR-Scr
# Experimental: The heart function of the mice was assessed using functional rodent echocardiography. After their body hair from the neckline to mid chest level was removed with hair removal cream, the mice were anesthetized with 2% isoflurane in the induction chamber and placed in a supine position atop a heating pad to maintain body temperature. The concentration of isoflurane was adjusted to keep a target heart rate of 450 ± 50 beats per minute (bpm). A rectal probe was gently inserted to continuously monitor and adjust body temperature (37.0 °C ± 0.5 °C) via the heating pad. Electrode gel was applied to all four paws, which were then taped to the ECG electrodes. The mice were subjected to transthoracic echo using Vevo 2100 (MS-550D, 22–55 MHz, VisualSonics Inc.).
# Tissues were fixed in 10% Neutral Buffered Formalin embedded in paraffin, sectioned at 5 μm, and stained with hematoxylin/eosin (H&E). Detection of H19 expression using a RNAScope probe (designed by Advanced Cell Diagnostics) was performed on mouse tissues with a RNAScope 2.0 High Definition Assay kit according to the manufacturer's instructions (Advanced Cell Diagnostics). The images were visualized with a Zeiss Axioskop2 plus Microscope, and the slides were scanned on the Automated Cellular Image System III for quantification by digital image analysis.
# C57BL/6 J mice [3] = assay: Glucose and insulin tolerance tests; details: n = 5
# Experimental: Insulin (ITT) and glucose (GTT) tolerance tests were performed on 6-h fasted male and female mice fed with chow or HFD. Glucose values were measured using AimStrip® Plus Blood Glucose Meter (VWR) by tail snip. Glucose (1 g per kg body weight) or human insulin (0.75 U per kg body weight) was injected intraperitoneally (i.p.) after baseline glucose levels were measured in each mouse, and blood glucose levels were measured 15, 30, 45, 60, and 90 min after injection.
# C57BL/6 J mice on a HFD = assay: HFD-induced obesity model: body, muscle and fat weights, body composition; details: HFD-fed male mice; for body weight: n = 10
# Experimental: To determine the effects of H19-Rgof with a skeletal muscle enrichment peptide agrin (AGR-H19-Rgof) on WT C57BL/6 J or Lep^Ob/Ob mice, AGR-tagged oligonucleotides were used. The synthesis and sequence information of AGR-tagged RNA oligonucleotides are described in “Synthesis of H19-Rgof mimics, AGR-H19-Rgof mimics, and Pharmacokinetics (PK) studies.” AGR-Scr (conjugated to scramble oligonucleotides), H19-Rgof, or AGR-H19-Rgof mimics were injected at a dose of 1 mg/kg intraperitoneally into 3-week-old male and female mice. For AGR-H19-Rgof treatment in HFD (Cat # D12492, Research Diets, Inc.)-fed mice, male C57BL/6 J mice were fed with a HFD starting at 6 weeks of age. The AGR-H19-Rgof and AGR-Scr mimics were injected at a dose of 0.5 or 1 mg/kg intraperitoneally every other day starting 2 weeks after the initiation of HFD feeding. Body weight was measured weekly. The general health condition, grooming, and behavior of all animals were monitored daily, and injection sites were checked for signs of redness or edema.
# Unless otherwise indicated, mice were fasted for 4–6 h, anesthetized with isoflurane, and sacrificed by heart puncture. Tissues were dissected, weighed, and either dipped in liquid nitrogen or fixed for immunohistochemistry analysis. Individual muscle was dissected on one side of the body and weighed. Adipose tissues including white adipose tissue (WAT), visceral adipose tissue (VAT), and brown adipose tissue (BAT) were collected and weighed.
# Whole-body composition parameters were measured in male and female mice fed with either chow or HFD by Faxitron Specimen Radiography System (Faxitron X-Ray Corp.) to precisely measure total body fat and lean mass. Mice were housed in the Oxymax/CLAMS metabolic cage system (Columbus Instruments) for 4 days with ad libitum access to food and water. Volume of oxygen uptake (VO2) and exhaled carbon dioxide (VCO2), respiratory exchange ratio (RER), and activity were measured using the Oxymax system. RER is determined by dividing VCO2 produced by VO2 consumed.
substance,measurement,setting,value
N-terminal-ELTNEIPAELTNEIPA-Linker-5'-[2’-F-C][2’-F-U][2’-F-C][2’-F-U][2’-F-U][2’-F-U][2’-F-A][2’-F-U][2’-F-U][2’-F-U][2’-F-C][2’-F-U][2’-F-G][2’-F-A][2’-F-G][2’-F-C][2’-F-U][2’-F-U][2’-F-U][2’-F-C][2’-F-C][2’-F-U][2’-F-A][2’-F-U][2’-F-C][2’-F-U][2’-F-U][2’-F-U][2’-F-C][2’-F-C]-3' [AGR-H19-Rgof],"force output, forelimb grip strength test","C57BL/6 J mice [1]; HFD-fed mice, n = 5",increased force output
same,"forelimb grip strength, average force","C57BL/6 J mice [1]; WT male and female mice, n = 8",increased average force
same,"LV end diastolic diameter, LV stroke volume, LV ejection fraction, LV fractional shortening, interventricular septal end diastole","C57BL/6 J mice [2]; echocardiography, n = 10",minimally affected
same,aorta tunica media and tunica adventitia thickness,"C57BL/6 J mice [2]; histology, n = 6",unaltered
same,diaphragm thickness,"C57BL/6 J mice [2]; histology, n = 6",increased thickness
same,glucose metabolism (GTT),C57BL/6 J mice [3]; HFD-fed male mice,improved
same,"insulin resistance (ITT, serum insulin, HOMA-IR)",C57BL/6 J mice [3]; HFD-fed male mice,alleviated
same,blood glucose levels in response to a glucose challenge (GTT),"C57BL/6 J mice [3]; WT male mice on chow, glucose 1 g per kg i.p.",reduced
same,blood glucose levels in response to an insulin challenge (ITT),"C57BL/6 J mice [3]; WT male mice on chow, insulin 0.75 U per kg i.p.",reduced
same,body weight,C57BL/6 J mice on a HFD; 0.5 mg/kg i.p. every other day,significantly reduced
same,body weight,C57BL/6 J mice on a HFD; 1 mg/kg i.p. every other day,significantly reduced
same,fat percentage (body composition),"C57BL/6 J mice on a HFD; vs AGR-Scr, n = 5",reduced
same,fat weight (body composition),"C57BL/6 J mice on a HFD; vs AGR-Scr, n = 5",reduced
same,lean weight (body composition),"C57BL/6 J mice on a HFD; vs AGR-Scr, n = 5",increased
same,fat mass,"C57BL/6 J mice on a HFD; vs AGR-Scr, n = 10, 9",reduced
same,skeletal muscle mass,"C57BL/6 J mice on a HFD; vs AGR-Scr, n = 10, 9",increased
